Data as given in patent US20070015774A1, “Quinazoline derivatives useful in cancer treatment” (Schering Corporation, priority 2005, published 2007).
Like-named read-outs stand apart in the source and are kept apart here.

Target: GST-p53 DNA binding domain (aa 92-aa 312) (Homo sapiens, UniProt P04637)
Assay: Scintillation Proximity Assay (SPA), displacement of 3H STANDARD COMPOUND
Settings: 1 h, 2 ug/mL of drug, read-out: SPA ASSAY % Residual T @ 2 ug/mL of drug (Average of)
From the text: Most of the oncogenic mutants of the tumor suppressor protein p53 lack sequence specific DNA binding activity at physiological temperature due to conformational changes in the DNA binding domain. Small molecules and peptide which bind to the p53 DNA binding domain stabilize the conformation and restore DNA binding activity to mutant p53 protein (Science 286, 2507-2510, 1999; PNAS, 99, 937-942, 2002). Using ^3H STANDARD COMPOUND (structure shown below; carbon atom with * is the atom labelled), [drawing 1366] a radio labeled small molecule which binds to p53, and the GST-p53 DNA binding domain (aa 92-aa 312), we have developed a quantitative screening assay. The assay is based on Scintillation Proximity Assay (SPA) technology, developed by Amersham Biosciences to measure molecular interactions. Briefly, the complex of GST-p53, ^3H STANDARD and Glutathione-SPA beads (Amersham Biosciences) are incubated with mixing for 1 hr at room temperature in the presence of the novel compounds to be screened. The signal is read on Microbeta. The compounds which have the ability to displace ^3H STANDARD COMPOUND are selected. Such molecules will stabilize the conformation and restore DNA binding activity to mutant p53 protein.
The above assay was used to determine the ability of the compounds of this invention to directly bind to p53 core and restore DNA binding activity to mutant p53 and the results for selected compounds have been given above in various tables.
A letter rating corresponding to % Residual total binding (T) @ 2 ug/mL of drug (i.e., compound of the present invention) from this assay have been assigned as follows: Compounds having % Residual T values of from 0% to less than 20% have been assigned the letter “A”. Compounds having % Residual T values of from 20% to less than 40% have been assigned the letter “B”. Compounds having % Residual T values of from 40% to less than 80% have been assigned the letter “C”. Compounds having % Residual T values of 80% or higher have been assigned the letter “D”. The exact % Residual T values @ 2 ug/mL for some illustrative compounds are shown below: […]

[1] = residual total binding of 3H STANDARD COMPOUND, lower is better
[2] = letter rating, number in brackets = number of determinations averaged
[3] = exact values, number in brackets = number of determinations averaged

Sequence of GST-p53 DNA binding domain (aa 92-aa 312) (P04637 92-312): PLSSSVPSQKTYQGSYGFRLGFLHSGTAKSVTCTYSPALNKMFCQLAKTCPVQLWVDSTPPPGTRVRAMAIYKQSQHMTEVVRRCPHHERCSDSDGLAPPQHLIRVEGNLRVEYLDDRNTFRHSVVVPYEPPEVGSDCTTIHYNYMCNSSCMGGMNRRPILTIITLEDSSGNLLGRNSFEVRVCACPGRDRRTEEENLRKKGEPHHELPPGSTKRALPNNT

SMILES | remaining activity at 2 µg/mL [2] [%] | also measured
COC(=O)[C@@H](Nc1nc(CNC(=O)Nc2ccccc2C(F)(F)F)nc2ccccc12)C(C)C [34-36] | – | remaining activity at 2 µg/mL [1]: 40 to 80%
COC(=O)[C@@H](Nc1nc(CNC(=O)Nc2ccc(Cl)c(Cl)c2)nc2ccccc12)C(C)C [34-39] | – | remaining activity at 2 µg/mL [1]: 40 to 80%
COC(=O)[C@@H](Nc1nc(CNC(=O)Nc2cc(Cl)cc(Cl)c2)nc2ccccc12)C(C)C [34-40] | – | remaining activity at 2 µg/mL [1]: 40 to 80%
COC(=O)[C@@H](Nc1nc(CNC(=O)Nc2ccccc2-c2ccccc2)nc2ccccc12)C(C)C [34-41] | – | remaining activity at 2 µg/mL [1]: 40 to 80%
COC(=O)[C@@H](Nc1nc(CNC(=O)Nc2cccc(Br)c2)nc2ccccc12)C(C)C [34-42] | – | remaining activity at 2 µg/mL [1]: 40 to 80%
CC(C)CCN(C)Cc1nc(NCCCN(C)C)c2ccccc2n1 [38-1] | 20 to 40 | –
CCC(C)CN(C)Cc1nc(NCCCN(C)C)c2ccccc2n1 (stereo not shown) [38-2] | 40 to 80 | –
CN(C)CCCNc1nc(CN(C)Cc2ccco2)nc2ccccc12 [38-3] | 40 to 80 | –
CN(C)CCCNc1nc(CN(C)Cc2ccoc2)nc2ccccc12 [38-4] | 40 to 80 | –
CN(C)CCCNc1nc(CN(C)Cc2cccs2)nc2ccccc12 [38-8] | ≥ 80 | –
CN(C)CCCNc1nc(CN(C)Cc2nccs2)nc2ccccc12 [38-10] | 20 to 40 | –
CN(C)CCCNc1nc(CN(C)Cc2cccc(F)c2)nc2ccccc12 [38-16] | ≥ 80 | –
CN(C)CCCNc1nc(CN(C)Cc2ccccc2C#N)nc2ccccc12 [38-18] | 40 to 80 | –
CN(C)CCCNc1nc(CN(C)Cc2cccc(C#N)c2)nc2ccccc12 [38-19] | 40 to 80 | –
CN(C)CCCNc1nc(CN(C)Cc2ccc(C#N)cc2)nc2ccccc12 [38-20] | 40 to 80 | –
CN(C)CCCNc1nc(CN(C)C/C=C/c2ccccc2)nc2ccccc12 [38-21] | ≥ 80 | –
Cc1cccc(C)c1CN(C)Cc1nc(NCCCN(C)C)c2ccccc2n1 [38-24] | ≥ 80 | –
COc1ccc(CN(C)Cc2nc(NCCCN(C)C)c3ccccc3n2)cc1 [38-27] | 40 to 80 | –
CN(C)CCCNc1nc(CN(C)Cc2ccc(Cl)cc2)nc2ccccc12 [38-30] | 40 to 80 | –
CN(C)CCCNc1nc(CN(C)Cc2c(F)cccc2F)nc2ccccc12 [38-31] | 40 to 80 | –

SMILES | remaining activity at 2 µg/mL [2] [%] | also measured
CCOC(=O)C1CC1CN(C)Cc1nc(NCCCN(C)C)c2ccccc2n1 (stereo not shown) [38-32] | 40 to 80 | –
CN(C)CCCNc1nc(CN(C)Cc2cccc3cc[nH]c23)nc2ccccc12 [38-33] | 20 to 40 | remaining activity at 2 µg/mL [3]: 25.7%
CN(C)CCCNc1nc(CN(C)Cc2cc3ccccc3o2)nc2ccccc12 [38-34] | 40 to 80 | –
CC(CCN(C)Cc1nc(NCCCN(C)C)c2ccccc2n1)c1ccccc1 (stereo not shown) [38-35] | ≥ 80 | –
CN(C)CCCNc1nc(CN(C)Cc2ccccc2C(=O)O)nc2ccccc12 [38-36] | ≥ 80 | –
CN(C)CCCNc1nc(CN(C)Cc2cccc3c2OCO3)nc2ccccc12 [38-37] | 40 to 80 | –
CN(C)CCCNc1nc(CN(C)Cc2cccc3ccccc23)nc2ccccc12 [38-41] | 40 to 80 | –
CN(C)CCCNc1nc(CN(C)Cc2ccc3ccccc3c2)nc2ccccc12 [38-42] | 40 to 80 | –
COC(=O)c1ccc(CN(C)Cc2nc(NCCCN(C)C)c3ccccc3n2)cc1 [38-46] | 40 to 80 | –
CN(C)CCCNc1nc(CN(C)Cc2cccc(C(F)(F)F)c2)nc2ccccc12 [38-48] | 40 to 80 | –
CN(C)CCCNc1nc(CN(C)Cc2cccc(Cl)c2Cl)nc2ccccc12 [38-50] | ≥ 80 | –
CN(C)CCCNc1nc(CN(C)Cc2cc(Cl)ccc2Cl)nc2ccccc12 [38-52] | 40 to 80 | –
Cc1c(CN(C)Cc2nc(NCCCN(C)C)c3ccccc3n2)sc2ccccc12 [38-56] | 20 to 40 | remaining activity at 2 µg/mL [3]: 23.6%
CN(C)CCCNc1nc(CN(C)Cc2ccccc2OCC(=O)O)nc2ccccc12 [38-57] | ≥ 80 | –
CN(C)CCCNc1nc(CN(C)Cc2ccc(-c3ccccc3)cc2)nc2ccccc12 [38-59] | ≥ 80 | –
CN(C)CCCNc1nc(CN(C)Cc2ccc(Oc3ccccc3)cc2)nc2ccccc12 [38-64] | 40 to 80 | –
COc1ccc(Cl)cc1NC(=O)N(C)Cc1nc(NCCCN(C)C)c2ccccc2n1 [41-30] | – | remaining activity at 2 µg/mL (letter rating, Examples 41 table): 40 to 80%
COc1ccc(/C=C/c2nc(NCCCN(C)C)c3ccccc3n2)cc1 [CP-31398, reference compound] | – | remaining activity at 2 µg/mL [3]: 61.3%
CN(Cc1ccccc1)Cc1nc2ccccc2c(=O)[nH]1 [PE-17] | – | remaining activity at 2 µg/mL [3]: 36.8%
CN(C)CCCNc1nc(CN(C)Cc2ccccc2)nc2ccccc12 [PE-19] | – | remaining activity at 2 µg/mL [3]: 22.2%

Continued, in another order:

remaining activity at 2 µg/mL [2] [%] | SMILES | also measured
≥ 80 | CN(C)CCCNc1nc(CN(C)Cc2ccc(C#Cc3ccccc3)cc2)nc2ccccc12 [38-65] | –
40 to 80 | CN(C)CCCNc1nc(CN(C)Cc2cccn2S(=O)(=O)c2ccccc2)nc2ccccc12 [38-66] | –
40 to 80 | CN(C)CCCNc1nc(CN(C)Cc2ccccc2Sc2ccc(Cl)cc2)nc2ccccc12 [38-67] | –
≥ 80 | CN(C)CCCNc1nc(CN(C)C2CCC2)nc2ccccc12 [38-68] | –
40 to 80 | CN(C)CCCNc1nc(CN(C)C2CCCCC2)nc2ccccc12 [38-72] | –
40 to 80 | CN(C)CCCNc1nc(CN(C)C2CCSC2)nc2ccccc12 (stereo not shown) [38-74] | –
≥ 80 | CN(C)CCCNc1nc(CN(C)C2C[C@@H]3CC[C@H]2C3)nc2ccccc12 (stereo partly shown) [38-75] | –
40 to 80 | CC1CCC(N(C)Cc2nc(NCCCN(C)C)c3ccccc3n2)CC1 (stereo not shown) [38-77] | –
0 to 20 | CC(C)C1CCC(N(C)Cc2nc(NCCCN(C)C)c3ccccc3n2)CC1 (stereo not shown) [38-81] | remaining activity at 2 µg/mL [3]: 13.5%
40 to 80 | CC(=O)N1CCC(N(C)Cc2nc(NCCCN(C)C)c3ccccc3n2)CC1 [38-82] | –
20 to 40 | CN(C)CCCNc1nc(CN(C)C2CCC3CCCCC3C2)nc2ccccc12 (stereo not shown) [38-83] | remaining activity at 2 µg/mL [3]: 28.7%
0 to 20 | CN(C)CCCNc1nc(CN(C)C2CCC(C(C)(C)C)CC2)nc2ccccc12 (stereo not shown) [38-84] | remaining activity at 2 µg/mL [3]: 7.8%
20 to 40 | CN(C)CCCNc1nc(CN(C)C2CCC3(CC2)OCCO3)nc2ccccc12 [38-85] | remaining activity at 2 µg/mL [3]: 23%
40 to 80 | CN(C)CCCNc1nc(CN(C)C2CCCC(C(F)(F)F)C2)nc2ccccc12 (stereo not shown) [38-86] | –
40 to 80 | CN(C)CCCNc1nc(CN(C)C2CCC(C(F)(F)F)CC2)nc2ccccc12 (stereo not shown) [38-87] | –
0 to 20 | CCC(C)(C)C1CCC(N(C)Cc2nc(NCCCN(C)C)c3ccccc3n2)CC1 (stereo not shown) [38-88] | remaining activity at 2 µg/mL [3]: 6.3%
20 to 40 | CN(C)CCCNc1nc(CN(C)C2CCC(c3ccccc3)CC2)nc2ccccc12 (stereo not shown) [38-89] | remaining activity at 2 µg/mL [3]: 21%
0 to 20 | CN(C)CCCNc1nc(CN(C)C2CCC(C#N)(c3ccccc3)CC2)nc2ccccc12 (stereo not shown) [38-90] | remaining activity at 2 µg/mL [3]: 5.5%
20 to 40 | CN(C)CCCNc1nc(CN(C)C2CCN(C(=O)c3ccccc3)CC2)nc2ccccc12 [38-91] | remaining activity at 2 µg/mL [3]: 20.7%
40 to 80 | CN(C)CCCNc1nc(CN(C)CC2CCCCC2)nc2ccccc12 [38-93] | –
